{"source": "patent US4574117A", "about": "“Stabilization of phenylalanine ammonia-lyase in a bioreactor using reducing agents” (Genex Corporation, priority 1984, dated 1986)", "key": {"[1]": {"biological_target": "T1, phenylalanine ammonia-lyase (PAL) (Rhodotorula mucilaginosa, UniProt P10248)", "T1 construct": "endogenous in cells; host or cells: Rhodotorula rubra cells (aerobic fermentation, whole cells harvested by centrifugation)", "T1 sequence (P10248 1-713)": "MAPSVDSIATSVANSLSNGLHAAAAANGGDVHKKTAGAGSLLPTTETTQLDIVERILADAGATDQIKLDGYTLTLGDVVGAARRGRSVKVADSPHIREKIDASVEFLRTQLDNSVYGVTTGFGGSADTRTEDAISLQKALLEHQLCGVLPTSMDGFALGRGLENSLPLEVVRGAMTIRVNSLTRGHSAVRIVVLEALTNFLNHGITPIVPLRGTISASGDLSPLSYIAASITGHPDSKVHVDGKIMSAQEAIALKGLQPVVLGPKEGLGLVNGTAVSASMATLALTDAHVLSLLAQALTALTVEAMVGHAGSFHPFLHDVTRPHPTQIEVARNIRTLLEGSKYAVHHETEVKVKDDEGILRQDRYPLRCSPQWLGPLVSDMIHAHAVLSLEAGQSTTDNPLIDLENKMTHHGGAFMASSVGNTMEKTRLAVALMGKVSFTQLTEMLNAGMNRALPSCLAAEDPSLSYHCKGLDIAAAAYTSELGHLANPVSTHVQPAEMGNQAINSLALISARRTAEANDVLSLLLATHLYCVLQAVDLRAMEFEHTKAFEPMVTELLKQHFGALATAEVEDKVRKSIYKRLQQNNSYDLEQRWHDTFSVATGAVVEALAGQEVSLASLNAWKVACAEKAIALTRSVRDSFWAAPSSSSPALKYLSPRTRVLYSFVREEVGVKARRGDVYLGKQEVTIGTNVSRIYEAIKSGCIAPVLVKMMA", "assay": "Example 1: L-phenylalanine bioreaction with PAL-containing cells, 2-mercaptoethanol at 100, 500 and 1000 mg/liter", "format": "biochemical, Rhodotorula rubra", "conditions": "after 15 hours, 35° C., pH 10.5; for L-Phenylalanine Produced: ammonium sulfate", "from_the_text": "Microbial cells containing a high level of activity of phenylalanine ammonia-lyase (PAL) were produced by aerobic fermentation. A 14 liter fermentor containing 10 liters of nutrient medium was inoculated with a seed culture of Rhodotorula rubra. The nutrient medium consisted of: soy peptone 2.7%; casein hydrolysate (Sheffield NZ-Amine) 1.35%; and corn steep liquor 0.18%. The fermentor contents were aerated and agitated, and the pH was maintained at 6.0 by periodic additions of ammonia water or sulfuric acid. During the fermentation, the PAL activity of the cells was monitored, and when the PAL activity reached a maximum (approximately 22 hours after inoculation), the fermentation was stopped by shutting off the aeration and agitation. The vessel was de-aerated by sparging with nitrogen gas. The microbial cells were separated from the fermentation broth by centrifugation, and stored at 4° C. Four 14 liter vessels were each filled with 13 liters of a substrate solution containing: ammonia, 4 mole/liter; ammonium sulfate, 100 gram/liter; and trans-cinnamic acid, 10 gram/liter. The pH of the solution was 10.5, and the temperature was maintained at 35° C. The vessels were deaerated by sparging with nitrogen gas, and 2-mercaptoethanol was added to three of the vessels in amounts of 100, 500, and 1000 mg/liter. PAL-containing microbial cells were then added to all four vessels in the amount of 1.35 gram (dry basis) per liter. The vessels were agitated for one minute every three hours. Supplemental trans-cinnamic acid was added to the vessels in the amount of 2.5 gram/liter at 3, 6, 9, and 12 hours after the addition of cells. After 15 hours, the concentration of L-phenylalanine in the reaction mixture was measured, and the PAL activity of the cells was determined. The results, which are shown in Table I, indicate that the stability of PAL was enhanced by the reducing agent, with the result that a greater quantity of L-phenylanine was produced. The optimum concentration for 2-mercaptoethanol is between 100 and 1000 mg/liter."}, "[2]": {"biological_target": "T1, phenylalanine ammonia-lyase (PAL)", "assay": "Example 3: optimum concentration of 2-mercaptoethanol, five vessels", "format": "biochemical, Rhodotorula rubra", "conditions": "for L-Phenylalanine Produced / PAL Activity (% of Activity): after 24 hours", "description": "The optimum concentration of 2-mercaptoethanol was determined by carrying out reactions in five vessels with varying concentrations of 2-mercaptoethanol. The procedures used were the same as those described in Examples 1 and 2, with the following modifications. The nutrient medium for the fermentation was composed of: yeast extract (Amber Laboratories, Amberex 1003) 1.35%; corn steep liquor 0.18%; and L-phenylalanine 2.7%. The substrate solution for L-phenylalanine production contained: ammonia 5.1 mole/liter; ammonium sulfate 120 gram/liter; and cinnamic acid 10 gram/liter, with 2.5 gram/liter added at 3, 6, 9, and 12 hours after the addition of cells. The quantity of cells added to each of the vessels was 1.6 gram (dry basis) per liter. After 24 hours, the L-phenylalanine concentration in the reaction mixture was measured, and the PAL activity of the cells was determined."}, "[3]": {"biological_target": "T1, phenylalanine ammonia-lyase (PAL)", "assay": "Example 4: 300 gallon reactor bioreaction with 2-mercaptoethanol", "format": "biochemical, Rhodotorula rubra", "conditions": "404 ml 2-mercaptoethanol in 900 liters substrate solution, after 53.5 hours, 30° C.", "description": "PAL-containing microbial cells were cultivated in three 250-liter fermentors, each containing 163 liters of nutrient medium. The medium was composed of: yeast extract (Amber Laboratories, Amberex 1003) 1.38%; beet molasses 4%; diammonium phosphate 0.18%; and L-phenylalanine 0.92%. The fermentor was inoculated with a shake flask culture of Rhodotorula rubra. The fermentation was carried out at 30° C. with aeration and agitation. The pH was maintained at 6.0 by periodic additions of ammonia water or sulfuric acid. During the fermentation, the PAL activity of the microbial cells was monitored, and when the PAL activity reached a maximum, at 28-30 hours after inoculation, the fermentations were stopped by shutting off the aeration and agitation. The vessels were de-aerated by sparging with nitrogen gas. Microbial cells were harvested by means of a Westfalia disc-bowl centrifuge. The combined yield of cells from all three fermentators was 5.04 kg (dry basis). Substrate solution for L-phenylalanine production was prepared as follows. […] The trans-cinnamic acid concentration in the reaction mixture was monitored at intervals of approximately two hours, and supplemental trans-cinnamic acid was added whenever necessary, to maintain a concentration of between 10 and 18 gram/liter. […]"}, "[4]": {"biological_target": "T1, phenylalanine ammonia-lyase (PAL)", "assay": "Example 2: bioreaction in ammonium carbonate or ammonium sulfate substrate solution with 2-mercaptoethanol", "format": "biochemical, Rhodotorula rubra", "conditions": "600 mg/l 2-mercaptoethanol, after 15 hours", "description": "Four 14 liter vessels were each filled with 13 liters of substrate solution. In two of the vessels, the substrate solution contained: ammonia, 5 mole/liter; ammonium carbonate, 120 gram/liter; and trans-cinnamic acid, 10 gram/liter. The other two vessels contained a substrate solution composed of: ammonia, 4.2 mole/liter; ammonium sulfate, 75 gram/liter; and trans-cinnamic acid, 10 gram/liter. The pH in all four vessels was 10.5, and the temperature was maintained at 35° C. All four vessels were de-aerated by sparging with nitrogen gas. Finally, one vessel of each pair had 600 mg/liter of 2-mercaptoethanol added. The reaction was started by adding PAL-containing microbial cells to each of the four vessels in the amount of 1.7 gram (dry basis) per liter. (The microbial cells were produced by the method of Example 1.) The vessels were agitated for one minute every three hours. Supplemental trans-cinnamic acid was added to all four vessels in the amount of 2.5 gram/liter at 3, 6, 9, and 12 hours after the addition of cells. After 15 hours, the concentration of L-phenylalanine in the reaction mixtures was measured, and the PAL activity of the cells was determined."}, "[5]": {"tested_on": "PAL", "conditions": "cited from earlier work"}}}
{"compound": "OCCS", "note": "[2-mercaptoethanol]", "values": [{"measurement": "PAL Activty (% of Initial)", "setting": "[1]; 100 mg/l 2-mercaptoethanol", "result": "31.2 % of Initial"}, {"measurement": "L-Phenylalanine Produced", "setting": "[1]; 100 mg/l 2-mercaptoethanol", "result": 7.34, "unit": "gm/l"}, {"measurement": "PAL Activty (% of Initial)", "setting": "[1]; 500 mg/l 2-mercaptoethanol", "result": "39.4 % of Initial"}, {"measurement": "L-Phenylalanine Produced", "setting": "[1]; 500 mg/l 2-mercaptoethanol", "result": 9.26, "unit": "gm/l"}, {"measurement": "PAL Activty (% of Initial)", "setting": "[1]; 1,000 mg/l 2-mercaptoethanol", "result": "35.9 % of Initial"}, {"measurement": "L-Phenylalanine Produced", "setting": "[1]; 1,000 mg/l 2-mercaptoethanol", "result": 8.54, "unit": "gm/l"}, {"measurement": "L-Phenylalanine Produced", "setting": "[2]; 300 mg/l 2-mercaptoethanol", "result": 12.6, "unit": "gram/l"}, {"measurement": "PAL Activity (% of Activity)", "setting": "[2]; 300 mg/l 2-mercaptoethanol", "result": "27.5 % of Activity"}, {"measurement": "L-Phenylalanine Produced", "setting": "[2]; 400 mg/l 2-mercaptoethanol", "result": 14.6, "unit": "gram/l"}, {"measurement": "PAL Activity (% of Activity)", "setting": "[2]; 400 mg/l 2-mercaptoethanol", "result": "32.4 % of Activity"}, {"measurement": "L-Phenylalanine Produced", "setting": "[2]; 500 mg/l 2-mercaptoethanol", "result": 15.4, "unit": "gram/l"}, {"measurement": "PAL Activity (% of Activity)", "setting": "[2]; 500 mg/l 2-mercaptoethanol", "result": "34.2 % of Activity"}, {"measurement": "L-Phenylalanine Produced", "setting": "[2]; 600 mg/l 2-mercaptoethanol", "result": 14.8, "unit": "gram/l"}, {"measurement": "PAL Activity (% of Activity)", "setting": "[2]; 600 mg/l 2-mercaptoethanol", "result": "32.7 % of Activity"}, {"measurement": "L-Phenylalanine Produced", "setting": "[2]; 800 mg/l 2-mercaptoethanol", "result": 14.6, "unit": "gram/l"}, {"measurement": "PAL Activity (% of Activity)", "setting": "[2]; 800 mg/l 2-mercaptoethanol", "result": "31.7 % of Activity"}, {"measurement": "optimum concentration of 2-mercaptoethanol", "setting": "[2]; Example 3 conditions", "result": "approximately 500 mg/liter"}, {"measurement": "PAL activity of the cells in the reactor, of the initial activity", "setting": "[3]", "result": 27, "unit": "%"}, {"measurement": "L-phenylalanine in the reaction mixture", "setting": "[3]; ammonium carbonate", "result": 33.3, "unit": "gram/liter"}, {"measurement": "L-Phenylalanine Produced", "setting": "[4]; ammonium carbonate", "result": 12.9, "unit": "gm/l"}, {"measurement": "PAL Activity (% of Initial)", "setting": "[4]; ammonium carbonate", "result": "46.6 % of Initial"}, {"measurement": "L-Phenylalanine Produced", "setting": "[4]; ammonium sulfate", "result": 10.8, "unit": "gm/l"}, {"measurement": "PAL Activity (% of Initial)", "setting": "[4]; ammonium sulfate", "result": "38.7 % of Initial"}]}
{"compound": "CC[C@H](C)[C@H](N)C(=O)O", "note": "[L-isoleucine, reference compound]", "values": [{"measurement": "effect on PAL stability", "setting": "[5]; extended the useful period of activity of the enzyme", "result": "stabilizing effect"}]}
{"compound": "O=C(O)/C=C/c1ccccc1", "note": "[t-cinnamic acid]", "values": [{"measurement": "rate of conversion of L-phenylalanine relative to the maximum rate", "setting": "[5]; t-cinnamic acid 150 mM (substrate inhibition)", "result": "one-half"}]}
